For 18 molecules, GI50 and TGI results are on record in PubChem BioAssay (NCI).

Where “and” joins values, the source holds several entries; their conditions need not be identical. Identical values can stand only once.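 How tested: cells in 96-well plates exposed to compound for 48 hours at five concentrations. GI50 is the concentration that inhibits growth by half. Definition used: TGI = concentration required for complete inhibition of growth.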

Holding throughout (assay): growth of human tumour cells (NCI), 48 h
Assay [1] deals with SK-OV-3 ovarian.
Assay [2] relates to HCT-15 colon.
In assay [3] the test system is MOLT-4 leukemia.
Assay [4] relates to M14 melanoma.
Assay [5] has as its system SNB-19 CNS.
The subject of assay [6] is MDA-MB-435.
Assay [7] has as its system HS 578T breast.
In assay [8] the test system is TK-10 renal.
Assay [9] deals with HOP-92 NSCLC.
For assay [10], the system named is UACC-62 melanoma.

Consider `ClCCN(CCCl)c1ccc(OCc2ccccc2)cc1`, for which the GI50 in [1] is 7.85 µM; in assay [2], 5.11 µM; in assay [3], 1.74 µM; in [4], 4.16 µM; in [5], 6.15 µM; in [6] it was 8.16 µM. For the same molecule, the GI50 in assay [7] is 15.7 µM. Further, the TGI in [1] was 61.4 µM; in assay [2], 84.1 µM; in [3] it was 40 µM; in assay [4], 42.2 µM; in [5], more than 100 µM; in assay [6], 32.6 µM. The molecule further showed a TGI in [7] of 69.4 µM.
As to `COc1ncnn2ccc(-c3cnc4nc(C)n(Cc5nnc(C(C)F)o5)c4c3)c12` (stereo not given), the GI50 in assay [1] was 0.0716 µM; in assay [8], 0.367 µM; in [2], 0.199 µM; in assay [9], 204 nM; in assay [3], 0.231 µM; in assay [4] it was 0.24 µM. In addition, the GI50 in assay [5] was 0.198 µM; in assay [6], 0.223 µM; in [7], 0.265 µM. The TGI in assay [1] was more than 100 µM; in assay [8], more than 100 µM; in assay [9], 2 µM; in assay [3], more than 20.8 µM; in assay [4] it was more than 40.5 µM; in assay [5] it was more than 100 µM. Besides, the TGI in [6] is more than 100 µM; in [7], 7.21 µM.
Regarding `CC[C@@]1(O)C(=O)OCc2c1cc1n(c2=O)Cc2cc3c(OC)cccc3nc2-1`, the GI50 is 0.00955 µM in assay [1]; 0.0599 nM in assay [9]; 0.000417 µM in assay [3]; 0.00262 µM in assay [10]; 0.00323 µM in assay [4]; 0.00642 µM in assay [5]. Further, the TGI in assay [1] was 4.41 µM; in [8], 50 µM; in assay [2] it was more than 60 µM; in assay [9] it was 0.685 µM; in assay [10], 0.0456 µM and 0.106 µM; in [4], 1.61 µM. Further, the TGI is more than 31.9 µM in assay [5] and more than 100 µM in assay [7].
With `CCOC(=O)c1c2c(n(Cc3ccccc3)c1C)-c1nc[nH]c1C(=O)C2=O`, the GI50 in [1] is 19.5 µM; in assay [8], 16.2 µM; in assay [2] it was 14.8 µM; in assay [9] it was 89.1 nM; in [3] it was 2.84 µM; in assay [4], 21.4 µM. Further, the GI50 in assay [5] was 17 µM; in [6] it was 16.9 µM; in [7], 29.3 µM. Besides, the TGI is 33.6 µM in assay [1]; 31.3 µM in assay [8]; 29.1 µM in assay [2]; 18.9 µM in [9]; 10.3 µM in assay [3]; 37.9 µM in [4]. Moreover, the TGI in assay [5] was determined as 30.7 µM; in assay [6], 31.3 µM; in assay [7] it was 88.1 µM.
For `COc1ccc(-c2nc(Nc3ccc(F)cc3)nc(Nc3ccc4c(c3)nc(C)n4Cc3ccccc3)n2)cc1`, the GI50 in [1] is 10.1 µM; in assay [2], 2.95 µM; in assay [9], 2590 nM; in assay [3] it was 3.44 µM; in assay [10] it was 6.66 µM; in assay [4], 3.72 µM. In addition, the GI50 in assay [5] was 6.9 µM; in [6], 3.27 µM; in assay [7] it was 6.63 µM. Also, the TGI in assay [1], in assay [2], in assay [9], in [3], in assay [10] and in [4] was more than 100 µM in each case. Further, the TGI in [5], in assay [6] and in assay [7] was more than 100 µM in each case.
On to `CCOC(=O)c1cc2c(OC)cc(OC)cc2oc1=O`, for which the TGI in [8], in assay [2], in assay [9], in [3], in [10] and in assay [4] was more than 100 µM each time. Besides, the TGI in [5], in assay [6] and in assay [7] was more than 100 µM each time.
As for `CN(CCNc1ccc(C(=N)N)cc1)c1ccc(C(=N)N)cc1`, the GI50 in assay [1] is 34.5 µM; in [8], 53.4 µM; in assay [2], 31.2 µM; in [3], more than 100 µM; in [10], 32.6 µM; in assay [4], 57 µM. The GI50 in assay [5] was 27.8 µM; in assay [6], 66.3 µM; in assay [7], 16.1 µM. The TGI in assay [1], in assay [8], in assay [2], in assay [3], in [10] and in [4] was more than 100 µM throughout. Further, the results for the TGI in assay [5], in assay [6] and in [7] were more than 100 µM, more than 100 µM and 51.9 µM, respectively.
With `Cc1ccc([I+]c2ccc(C)cc2)cc1`, the GI50 is 21.8 µM in assay [1]; 6.63 µM in assay [8]; 59.5 µM in assay [2]; 4690 nM in assay [9]; 8.86 µM in [10]; 10.8 µM in assay [4]. For the same molecule, the GI50 in assay [5] was 16.1 µM; in assay [6], 5.28 µM; in assay [7], 24.8 µM. Also, the TGI in [1], in [8], in assay [2], in assay [9], in assay [10] and in assay [4] was more than 100 µM throughout. In addition, the TGI is more than 100 µM in assay [5], 77.3 µM in assay [6] and more than 100 µM in [7].
For `CO[C@@H]1[C@H](N(C)C(=O)c2ccccc2)C[C@@H]2O[C@]1(C)n1c3ccccc3c3c4c(c5c6ccccc6n2c5c31)C(=O)NC4=O`, the GI50 was 1.67 µM in assay [1]; 0.766 µM in assay [2]; 173 nM in [9]; 1.96 µM in assay [3]; 0.54 µM in assay [10]; 0.68 µM in [4]. Besides, the results for the GI50 in assay [5], in assay [6] and in assay [7] were more than 100 µM, 0.775 µM and 0.461 µM, respectively. The TGI in assay [1], in assay [2], in assay [9], in assay [3], in assay [10] and in assay [4] was more than 100 µM each time. The TGI in assay [5], in [6] and in [7] was more than 100 µM throughout.
For `OC1CCC(COC(c2ccccc2)(c2ccccc2)c2ccccc2)O1` (stereo not given), the TGI in [1] was 36.6 µM; in assay [8] it was more than 10 µM; in assay [2], 44.5 µM; in assay [3], 35.2 µM; in assay [10], 33.8 µM; in assay [4], 32.7 µM. Moreover, the TGI in assay [5] stood at 40 µM; in assay [6], 39.9 µM; in assay [7], 35.7 µM.
Turning to `COC(=O)Nc1nc2ccc(C(=O)C3CC3)cc2[nH]1`, the GI50 in [1] was 0.412 µM; in [8], 1.38 µM; in assay [2], 0.385 µM; in [3], 1.25 µM; in assay [10], 0.487 µM; in [4], 0.276 µM. The GI50 in assay [5] was 0.88 µM; in assay [6] it was 0.134 µM; in [7], 0.28 µM. In addition, the TGI is more than 62 µM in assay [1]; 47.2 µM in assay [8]; more than 100 µM in assay [2]; more than 100 µM in [3]; more than 100 µM in assay [10]; more than 56.5 µM in assay [5]. Besides, the TGI in assay [6] was 0.324 µM; in assay [7] it was 0.853 µM.
In the case of `CC(=O)NS(=O)(=O)c1ccc(-n2nc(-c3ccccc3)cc2-c2cc(O)ccc2O)cc1`, the GI50 in [8] is 10.9 µM; in assay [2], more than 100 µM; in [9] it was more than 100000 nM; in assay [3] it was more than 100 µM; in [10] it was 62 µM; in assay [4], 31.4 µM. Besides, the GI50 in assay [5], in assay [6] and in assay [7] was more than 100 µM in each case. Also, the TGI in assay [8], in assay [2], in assay [9], in assay [3], in assay [10] and in [4] was more than 100 µM in each case. The TGI in assay [5], in assay [6] and in assay [7] was more than 100 µM each time.
As to `NNC(=S)N/N=C/c1ccccn1`, the GI50 in assay [1] was 2.89 µM; in [8], 1.96 µM; in assay [2] it was 1.03 µM; in assay [9] it was 887 nM; in assay [3], 3.34 µM; in assay [10], 2.03 µM. Besides, the GI50 in assay [5] is 3.57 µM; in assay [6] it was 5.2 µM; in assay [7] it was 3.86 µM. Further, the TGI was more than 100 µM in assay [1]; more than 100 µM in [8]; more than 100 µM in [2]; 8.2 µM in assay [9]; more than 100 µM in assay [3]; 14 µM in assay [10]. In addition, the TGI in assay [5], in assay [6] and in [7] was more than 100 µM throughout.
For `O=C(O)c1ccc(NCn2nc(-c3ccccc3O)oc2=S)cc1O`, the GI50 in assay [8] is more than 100 µM; in [2], 32 µM; in [9] it was more than 100000 nM; in assay [3], 26.1 µM; in [10], 39.8 µM; in [4], more than 100 µM. In addition, the GI50 in assay [5], in assay [6] and in assay [7] was more than 100 µM throughout. Moreover, the TGI in assay [8] was more than 100 µM; in [2], 92.6 µM; in [9], more than 100 µM; in [3], 82.1 µM; in [10], more than 100 µM; in assay [4] it was more than 100 µM. Also, the TGI in [5], in assay [6] and in assay [7] was more than 100 µM each time.
For the molecule `O=C(O)c1cc(C(=O)C(=O)c2cc(C(=O)O)c(O)c3ccccc23)c2ccccc2c1O`, the TGI in assay [1], in [8], in assay [2], in [9], in assay [10] and in assay [4] was more than 100 µM throughout. Besides, the TGI in assay [5], in [6] and in [7] was more than 100 µM in each case.
Turning to `Fc1ccc(-c2nn3c(COc4ccccc4Cl)nnc3s2)cc1Oc1ccccc1`, the GI50 in assay [8] was 20.5 µM; in assay [2], 38.7 µM; in [9], 15200 nM; in assay [10] it was 17.8 µM; in [4] it was 24.4 µM; in assay [5] it was 23.4 µM. Also, the GI50 was 33.2 µM in [6] and 47.6 µM in [7]. Also, the TGI in assay [8] was 47.1 µM; in assay [2] it was more than 100 µM; in assay [9] it was 45.6 µM; in assay [10], 39 µM; in assay [4] it was 54.7 µM; in [5] it was 57.6 µM. In addition, the TGI in assay [6] and in [7] was more than 100 µM each time.
Take `CC(=O)N[C@@H](Cc1ccc(OP(=O)(O)O)cc1)C(=O)N[C@H]1CCC(=O)N2CCC[C@@H](C(=O)NCc3cccc4ccccc34)N2C1=O`: the GI50 in assay [1], in [8], in [2], in assay [3], in assay [10] and in assay [4] was more than 25 µM in each case. The GI50 in [5], in assay [6] and in assay [7] was more than 25 µM in each case. The TGI in assay [1], in assay [8], in [2], in assay [3], in [10] and in assay [4] was more than 25 µM throughout. Further, the TGI in assay [5], in [6] and in assay [7] was more than 25 µM each time.
As to `N#C/C(=C\c1ccc([N+](=O)[O-])cc1)n1nnc2cc(F)c(F)cc21`, the GI50 in [1] was 2.85 µM; in [8], 1.89 µM; in assay [2], 1.93 µM; in assay [3] it was 2.97 µM; in assay [10], 1.66 µM; in [4] it was 1.83 µM. Also, the figures for the GI50 in assay [5], in assay [6] and in assay [7] were 2.96 µM, 2.32 µM and 2.65 µM, respectively. Moreover, the TGI in [1] was determined as 11.4 µM; in assay [8], 3.33 µM; in [2], 5.44 µM; in assay [3], 10.5 µM; in [10] it was 3.36 µM; in assay [4], 3.74 µM. Also, the figures for the TGI in assay [5], in assay [6] and in [7] were 10.4 µM, 5.85 µM and 11.4 µM, respectively.
